Tests used:
[1] = rat microsomal stability (RLM); details: microsomal stability half-life, minutes
[2] = molecular target: recombinant mouse GALK1 (Mus musculus, UniProt Q9R0N0); assay: mGALK1 biochemical activity assay (Kinase-Glo Plus, ATP depletion); details: recombinant mouse GALK1, Kinase-Glo Plus ATP depletion; bracketed figure in the cell, e.g. (−1.2), is not defined in the text shown; read-out: mGALK
In short: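 Recombinant GALK1 (5 nM) with 100 μM galactose; GALK1 turnover read as ATP depletion by Kinase-Glo Plus luminescence. Reaction ran 1 h at room temperature before detection reagent was added.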

[3] = PAMPA permeability; details: PAMPA
[4] = molecular target: recombinant human GALK1 (Homo sapiens, UniProt P51570); assay: hGALK1 biochemical activity assay (Kinase-Glo Plus, ATP depletion); details: recombinant human GALK1, Kinase-Glo Plus ATP depletion; bracketed figure in the cell, e.g. (−1.2), is not defined in the text shown; read-out: hGALK
Sequence of recombinant human GALK1 (P51570 whole entry): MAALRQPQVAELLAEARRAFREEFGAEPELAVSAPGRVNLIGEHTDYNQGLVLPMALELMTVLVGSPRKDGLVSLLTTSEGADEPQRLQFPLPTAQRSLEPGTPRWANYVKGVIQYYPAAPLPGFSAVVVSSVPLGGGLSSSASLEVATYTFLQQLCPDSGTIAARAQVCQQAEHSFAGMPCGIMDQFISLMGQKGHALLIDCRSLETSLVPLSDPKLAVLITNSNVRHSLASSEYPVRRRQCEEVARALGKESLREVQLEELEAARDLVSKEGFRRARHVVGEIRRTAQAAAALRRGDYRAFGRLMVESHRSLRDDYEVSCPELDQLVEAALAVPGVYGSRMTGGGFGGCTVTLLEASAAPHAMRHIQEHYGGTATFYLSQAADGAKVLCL
In short: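 Recombinant human or mouse GALK1 (5 nM, with 100 μM galactose, in the added enzyme solution) was run with ATP (35 μM in the substrate solution) in HEPES pH 8.0 buffer. Compounds were tested at 11 1/3-step concentrations from 57.4 μM to 0.97 nM. After 1 h at room temperature, remaining ATP was read by Kinase-Glo Plus luminescence.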

[5] = aqueous kinetic solubility; details: aqueous kinetic solubility

Sequence of recombinant mouse GALK1 (Q9R0N0 whole entry): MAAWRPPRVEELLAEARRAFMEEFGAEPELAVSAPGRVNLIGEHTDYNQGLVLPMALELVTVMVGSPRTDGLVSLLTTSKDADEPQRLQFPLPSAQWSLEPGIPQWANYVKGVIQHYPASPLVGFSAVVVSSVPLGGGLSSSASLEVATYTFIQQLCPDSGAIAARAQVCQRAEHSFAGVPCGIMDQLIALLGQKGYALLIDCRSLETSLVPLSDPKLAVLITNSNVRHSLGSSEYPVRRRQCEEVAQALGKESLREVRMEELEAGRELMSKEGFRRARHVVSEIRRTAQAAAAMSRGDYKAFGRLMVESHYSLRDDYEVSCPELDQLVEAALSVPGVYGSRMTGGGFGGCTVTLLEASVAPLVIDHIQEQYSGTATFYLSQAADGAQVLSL

| SMILES | Metab. Stabil. (m) [1] | IC50 [2] | Perm. (1 × 10^−6 cm/sec) [3] | IC50 [4] | Sol. [5] |
| --- | --- | --- | --- | --- | --- |
| CC1=C(C(=O)Nc2nncs2)C(c2ccccc2C)N=C(Nc2nc3ccccc3o2)N1 (stereo not drawn) [Compound 267, 2-(benzo[d]oxazol-2-ylamino)-6-methyl-N-(1,3,4-thiadiazol-2-yl)-4-(o-tolyl)-1,4-dihydropyrimidine-5-carboxamide] | >30 m | 21.7 µM | 83.8 1 × 10^−6 cm/sec | 12.2 µM | <1 µg/mL |
| CC1=C(C(=O)Nc2nncs2)C(c2n[nH]cc2Br)N=C(Nc2nc3ccccc3o2)N1 (stereo not drawn) [Compound 268, 2-(benzo[d]oxazol-2-ylamino)-4-(4-bromo-1H-pyrazol-3-yl)-6-methyl-N-(1,3,4-thiadiazol-2-yl)-1,4-dihydropyrimidine-5-carboxamide] | >30 m | 19.3 µM | 27.4 1 × 10^−6 cm/sec | 7.69 µM | 11.4 µg/mL |
| COc1ccc(Cl)c(C2N=C(Nc3nc4ccccc4o3)NC(C)=C2C(=O)Nc2nncs2)c1 (stereo not drawn) [Compound 269, 2-(benzo[d]oxazol-2-ylamino)-4-(2-chloro-5-methoxyphenyl)-6-methyl-N-(1,3,4-thiadiazol-2-yl)-1,4-dihydropyrimidine-5-carboxamide] | >30 m | 17.2 µM | 19.8 1 × 10^−6 cm/sec | 13.7 µM | <1 µg/mL |
| CC1=C(C(=O)Nc2nncs2)C(c2cc(Cl)ccc2Cl)N=C(Nc2nc3ccccc3o2)N1 (stereo not drawn) [Compound 270, 2-(benzo[d]oxazol-2-ylamino)-4-(2,5-dichlorophenyl)-6-methyl-N-(1,3,4-thiadiazol-2-yl)-1,4-dihydropyrimidine-5-carboxamide] | >30 m | 10.9 µM | 2.9 1 × 10^−6 cm/sec | 6.11 µM | <1 µg/mL |
| CC1=C(C(=O)Nc2nncs2)C2(CCSCC2)N=C(Nc2nc3ccccc3o2)N1 [Compound 271, 2-(benzo[d]oxazol-2-ylamino)-4-methyl-N-(1,3,4-thiadiazol-2-yl)-9-thia-1,3-diazaspiro[5.5]undeca-1,4-diene-5-carboxamide] | >30 m | 24.3 µM | 417.5 1 × 10^−6 cm/sec | 8.63 µM | 3.5 µg/mL |
| CCOC(=O)N1C(Nc2nc3ccccc3o2)=NC(c2ccccc2Cl)C(C(=O)Nc2cc(C(=O)O)ccn2)=C1C (stereo not drawn) [Compound 274, 2-(2-(benzo[d]oxazol-2-ylamino)-4-(2-chlorophenyl)-1-(ethoxycarbonyl)-6-methyl-1,4-dihydropyrimidine-5-carboxamido)isonicotinic acid] | >30 m | 19.3 µM | <1 1 × 10^−6 cm/sec | 9.68 µM | >85 µg/mL |
| CC1=C(C(=O)Nc2cc(C(=O)O)ccn2)C(c2ccccc2Cl)N=C(Nc2nc3ccccc3o2)N1C(=O)c1ccccc1 (stereo not drawn) [Compound 275, 2-(2-(benzo[d]oxazol-2-ylamino)-1-benzoyl-4-(2-chlorophenyl)-6-methyl-1,4-dihydropyrimidine-5-carboxamido)isonicotinic acid] | >30 m | 7.69 µM | <1 1 × 10^−6 cm/sec | 3.43 µM | 73.9 µg/mL |
| O=C1CC(C(=O)O)CC2=C1C(c1ccccc1Cl)N=C(Nc1nc3ccccc3o1)N2 (stereo not drawn) [Compound 276, 2-(benzo[d]oxazol-2-ylamino)-4-(2-chlorophenyl)-5-oxo-1,4,5,6,7,8-hexahydroquinazoline-7-carboxylic acid] | >30 m | 6.85 µM | <1 1 × 10^−6 cm/sec | 3.85 µM | 52.63 µg/mL |
| CNC(=O)C1CC(=O)C2=C(C1)NC(Nc1nc3ccccc3o1)=NC2c1ccccc1Cl (stereo not drawn) [Compound 278, 2-(benzo[d]oxazol-2-ylamino)-4-(2-chlorophenyl)-N-methyl-5-oxo-1,4,5,6,7,8-hexahydroquinazoline-7-carboxamide] | >30 m | 6.85 µM | 430.36 1 × 10^−6 cm/sec | 6.11 µM | <1 µg/mL |
| O=C1CC(C(=O)NCCO)CC2=C1C(c1ccccc1Cl)N=C(Nc1nc3ccccc3o1)N2 (stereo not drawn) [Compound 279, 2-(benzo[d]oxazol-2-ylamino)-4-(2-chlorophenyl)-N-(2-hydroxyethyl)-5-oxo-1,4,5,6,7,8-hexahydroquinazoline-7-carboxamide] | >30 m | 5.44 µM | <2 1 × 10^−6 cm/sec | 4.85 µM | 28.98 µg/mL |
| COCCNC(=O)C1CC(=O)C2=C(C1)NC(Nc1nc3ccccc3o1)=NC2c1ccccc1Cl (stereo not drawn) [Compound 280, 2-(benzo[d]oxazol-2-ylamino)-4-(2-chlorophenyl)-N-(2-methoxyethyl)-5-oxo-1,4,5,6,7,8-hexahydroquinazoline-7-carboxamide] | 10.16 m | 4.85 µM | 747.27 1 × 10^−6 cm/sec | 4.85 µM | 4.23 µg/mL |
| O=C1CC(C(=O)Nc2nncs2)CC2=C1C(c1ccccc1Cl)N=C(Nc1nc3ccccc3o1)N2 (stereo not drawn) [Compound 281, 2-(benzo[d]oxazol-2-ylamino)-4-(2-chlorophenyl)-5-oxo-N-(1,3,4-thiadiazol-2-yl)-1,4,5,6,7,8-hexahydroquinazoline-7-carboxamide] | >30 m | 12.2 µM | <5 1 × 10^−6 cm/sec | 6.85 µM | 1.23 µg/mL |
| O=C1CC(C(=O)N2CCNCC2)CC2=C1C(c1ccccc1Cl)N=C(Nc1nc3ccccc3o1)N2 (stereo not drawn) [Compound 282, 2-(benzo[d]oxazol-2-ylamino)-4-(2-chlorophenyl)-7-(piperazine-1-carbonyl)-4,5,6,8-tetrahydroquinazolin-5(1H)-one] | 30 m | 7.69 µM | <4.7 1 × 10^−6 cm/sec | 6.85 µM | 23.88 µg/mL |
| O=C(O)CNC(=O)C1CC(=O)C2=C(C1)NC(Nc1nc3ccccc3o1)=NC2c1ccccc1Cl (stereo not drawn) [Compound 283, (2-(benzo[d]oxazol-2-ylamino)-4-(2-chlorophenyl)-5-oxo-1,4,5,6,7,8-hexahydroquinazoline-7-carbonyl)glycine] | >30 m | 4.85 µM | <1 1 × 10^−6 cm/sec | 3.43 µM | 58.23 µg/mL |
| CN(C)CCNC(=O)C1CC(=O)C2=C(C1)NC(Nc1nc3ccccc3o1)=NC2c1ccccc1Cl (stereo not drawn) [Compound 284, 2-(benzo[d]oxazol-2-ylamino)-4-(2-chlorophenyl)-N-(2-(dimethylamino)ethyl)-5-oxo-1,4,5,6,7,8-hexahydroquinazoline-7-carboxamide] | >30 m | 12.2 µM | <9.8 1 × 10^−6 cm/sec | 12.2 µM | 61.78 µg/mL |
